Key:
[1] = tested on: gastric cancer cells including AGS, SNU216, and SNU638; assay: L20 peptide binding to gastric cancer cells; format: cell-based; details: Figure 1D
[2] = tested on: five colon cancer cell lines; assay: Flow cytometry; format: cell-based, human; details: FITC-L20 10 μM, 1 hour at RT, all colon cancer cells, Figure 1C
CCD841 cells = assay: FITC-labeled peptide immunofluorescence assay, control cells; format: cell-based, human; details: fluorescein-labeled peptide, 10 μM, 1 hour at RT, Figure 1B
five colon cancer cells = assay: FITC-labeled peptide immunofluorescence assay, colon cancer cells; format: cell-based, human; details: fluorescein-labeled peptide, 10 μM, 1 hour at RT, Figure 1B

ANLNLWTDYIRW [L20 peptide]
fluorescence in gastric cancer cell lines compared to the control cells [1]: did not show higher fluorescence | FACS fluorescence compared to the control peptide [2]: right shift of fluorescence | fluorescence on the control cell line (CCD841 cells): negligible | fluorescence on colon cancer cells (five colon cancer cells): very intense fluorescence

— article PMC7248426 (Translational Oncology, 2020)
